Measured values reported in patent publication US20100210692A1, “METHODS OF TREATMENT USING SIRT MODULATORS AND COMPOSITIONS CONTAINING SIRT1 MODULATORS” (priority 2007, published 2010).
“Also recorded” adds a separate entry of the source. Values belong to the compound of their own block, whether it stands above or below them.

What was measured:
3T3-L1 adipocytes [1] = assay: Western blot of adiponectin secretion and intracellular proteins in 3T3-L1 adipocytes; format: cell-based, Murine; settings: for secretion of the HMW adiponectin complexes: non-reducing SDS-PAGE
Protocol: Cell Culture: Murine 3T3-L1 preadipocytes were cultured and maintained in DMEM supplemented with […]. Differentiation was induced by exposure of postconfluent cells to DMEM containing 10% […], 1 μM dexamethasone (DEX), 0.5 mM 3-isobutyl-1-methylxanthine (MIX) and […] insulin. After 48 hours, the medium was changed to DMEM containing 10% FBS every two days. Human embryonic kidney (HEK)-293T cells were cultured in DMEM with 10% FBS; The Swiss F-PPARγ cells were differentiated as recently described (Wang et al, 2006; accompanying paper).
Western Blot Analysis of Proteins: Isolation and western blot analysis of total cell proteins was performed as outlined previously (21). The antibodies employed in the analysis were as follows: Mouse polyclonal anti-adiponectin antibody (Affinity BioREagents, Golden, Colo.), polyclonal anti-SIRT1 antibody (Upstate), anti-PPARγ and anti-C/EBPα (Santa Cruz Biotechnology), anti-Ero1 polyclonal antibody (Abnova Co., Taiwan, China) and polyclonal anti-aP2 serum (Dr. David Benlohr at University of Minnesota). For analysis of secreted proteins, aliquots of the culture medium were centrifuged at low speed to remove debris and then subjected to standard SDS-PAGE as above or non-reducing SDS-PAGE as outlined by Kadowaki and collaborators (37). Prior to electrophoresis, the samples were mixed with 4× non-reducing protein sample buffer (200 mM, […], 8% SDS, 0.4% bromophenot blue, 40% glycerol) and incubated at room temperature for one hour. Care was taken to ensure that all components of the SDs PAGE system were completely free of reducing agents.

Swiss WT-PPARγ cells = assay: RT-PCR of Group 1 and Group 2 genes in Swiss WT-PPARγ cells; format: cell-based, mouse; settings: for expression of C/EBPα and adiponectin in response to endogenous ligands (FIG. 14B) / expression of the Group 2 genes in response to endogenous ligands (FIG. 14B): antagonist 10 μM, day 5
Protocol: (§1) Cells were then harvested for extraction of RNA followed by RT-PCR analysis of FGF21 and FABP4/aP2 mRNAs as described in materials and methods. (B). […] (C). Reporter assays were also performed in Swiss fibroblasts stably expressing a WT-PPARγ or a pBabe-puro empty vector (control cells) following transfection of the FGF21 promoter reporter plasmids along with the renilla control vector in the presence or absence of GW1929. In both assays (B) and (C), a set of cells were also transfected with a reporter plasmid consisting of the PPRE from the aP2 gene upstream of luciferase within pGL3 (DR-1). Transcriptional activity of each of the fragments of the FGF21 gene promoter is shown as the ratio of luciferase to renilla activity (Luc/Ren) as described in materials and methods.
(§2) Cells were refed every 2 days.

[2] = test system: Swiss 3T3 fibroblasts expressing wild type PPARγ; assay: RT-PCR of mRNAs in Swiss 3T3 fibroblasts expressing wild type PPARγ (FIG. 5); format: cell-based, mouse; settings: troglitazone 5 μM or T0070907 10 μM with differentiation cocktail, day 6
Protocol: Swiss 3T3 fibroblasts expressing wild type PPARγ or a control vector were induced to differentiate by exposure to a differentiation cocktail of dexamethasone, isobutylmethylxanthine and insulin in 10% FBS as outlined in Materials and Methods (Con). […] At day 6, cells were harvested for analysis of individual mRNAs as indicated using RT-PCR.
Cell Culture: Murine 3T3-L1 preadipocytes were cultured and maintained in DMEM supplemented with 0% calf serum. Differentiation was induced by exposure of postconfluent cells to DMEM containing 10% MS, 1 μM dexamethasone (DEX), 0.5 mM 3-isobutyl-1-methylxanthine (MIX) and 1,61 μM insulin. After 48 hours, the medium was changed to DMEM containing 10% FBS every two days.
A Analysis: Total RNA was isolated using TRIzol following the manufacturer's instructions and was subjected to RT-PCR analysis as outlined in the Promega product manual as previously described (31). […] In the case of analyzing Ero1-Lα mRNA, primers were the same as those listed above for generating the Ero1-Lα pRevTRE expression vector.

SIRT1 [3] = target: T1, SIRT1 (Homo sapiens, UniProt Q96EB6); assay: SIRT1 p53-382 IC50 assay (Table 1); format: biochemical
T1 sequence (Q96EB6 1-747): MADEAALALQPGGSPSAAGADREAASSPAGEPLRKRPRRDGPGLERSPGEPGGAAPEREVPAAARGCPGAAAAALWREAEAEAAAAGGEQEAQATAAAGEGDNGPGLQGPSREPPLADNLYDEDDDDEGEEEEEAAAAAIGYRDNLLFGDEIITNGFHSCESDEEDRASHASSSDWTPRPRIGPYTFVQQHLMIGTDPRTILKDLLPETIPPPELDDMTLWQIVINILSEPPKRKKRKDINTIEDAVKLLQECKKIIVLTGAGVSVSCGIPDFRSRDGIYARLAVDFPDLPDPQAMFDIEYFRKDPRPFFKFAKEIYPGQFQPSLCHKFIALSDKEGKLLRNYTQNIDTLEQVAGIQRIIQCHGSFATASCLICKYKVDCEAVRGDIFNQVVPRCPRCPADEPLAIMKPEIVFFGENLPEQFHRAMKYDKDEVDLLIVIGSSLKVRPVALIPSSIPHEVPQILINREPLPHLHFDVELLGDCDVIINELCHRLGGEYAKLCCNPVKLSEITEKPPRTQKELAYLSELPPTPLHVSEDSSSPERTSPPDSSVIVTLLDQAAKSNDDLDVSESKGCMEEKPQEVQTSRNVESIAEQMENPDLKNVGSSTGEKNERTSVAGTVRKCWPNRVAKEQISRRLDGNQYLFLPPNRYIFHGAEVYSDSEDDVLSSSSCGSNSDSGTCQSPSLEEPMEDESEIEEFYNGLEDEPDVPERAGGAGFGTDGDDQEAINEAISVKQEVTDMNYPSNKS

[4] = test system: Swiss F372A PPARγ cells (F-Ero1); assay: Adiponectin secretion in Swiss F372A PPARγ cells with ectopic Ero1-Lα (FIG. 9); format: cell-based, mouse; settings: F-Ero1 cells + tetracycline, 50 μM resveratrol for 2 days from day 4
[5] = test system: Fibroblasts that ectopically express PPARγ; assay: qPCR of FGF21 mRNA in fibroblasts that ectopically express PPARγ (Example 4); format: cell-based; settings: 5 μM compound with 5 μM troglitazone, day 4 to 6
Protocol: Cells were harvested on day 6 for qPCR measurement of FGF21 mRNA. Three separate dishes of cells were analyzed for each condition.

Ero1-Lα = assay: Transient knockdown of Ero1-Lα in 3T3-L1 adipocytes; format: cell-based, Murine; settings: 100 nM RNAi duplex, transfected day 4 and 5, harvested day 6
Protocol: 3T3-L1 preadipocytes were cultured in 60 mm dishes and induced to differentiate as described above. On day 4, the differentiation-inducing medium was replaced with 2.5 mL, fresh DMEM containing 10% FBS. 15 μL TransIT-TKO Transfection Reagent (Mirus Bio Cooperadon. Madison, Wis.) was diluted into 250 μL serum free DMEM and incubated at room temperature for 20 minutes, at which time 100 nM Ero1-Lα RNAi duplex or control duplex […]) was added and mixed thoroughly. After incubation at room temperature for another 20 minutes, the resulting TranIT-TKO/RNAi mixture was gently mixed into the adipocyte cultures. The next day, the medium was changed to 2.5 mL flesh DMEM containing 10% FBS and the transfection was repeated as on day 4. On day 6, the total cellular proteins were harvested and subjected to Western blot analysis. The modified synthetic Ero1-Lα RNAi duplexes (Stealth™ siRNA) were from Invitrogen Life Technologies. The sequences are as follows:
Western Blot Analysis of Proteins: Isolation and western blot analysis of total cell proteins was performed as outlined previously (21). […]

SIRT1 [6] = target: T1, SIRT1; assay: Activity of enantiomers against the SIRT1 enzyme; format: biochemical; settings: comparison of enantiomers
Swiss EF-PPARγ cells = assay: RT-PCR of Group 1 and Group 2 genes in Swiss EF-PPARγ / F-PPARγ cells
Protocol: In (A), (B) and (C), total RNA of cells was isolated at day 5 using Trizol Reagent (Invitrogen) and subjected to RT-PCR analysis of the indicated Group 1 and Group 2 genes as described in materials and methods.
Cell Culture: The Swiss fibroblast cell lines expressing wild type (WT.) and mutant forms of PPARγ (E, EF, F, DD) generated as previously described (22) and murine 3T3-L1 preadipocytes were grown in Dulbecco's modified Eagle's medium (DMEM) containing 10% FBS (fibroblasts) or 10% calf serum (preadipocytes) until confluent and were then maintained in the same medium for an additional 2 days. […] Cells were refed every 2 days.
Analysis of RNA: Total cellular RNA was prepared using TRIzol reagent (InVitrogen) according to the manufacturer's instructions. As were made from equivalent amounts of total RNA by using Reverse Transcription System (Promega) as described previously (33).

3T3-L1 adipocytes [7] = assay: RT-PCR of Group 1 and Group 2 genes in differentiating 3T3-L1 cells (FIG. 17); format: cell-based, murine; settings: SIRT1 knockdown 3T3-L1 cells, day 4, 2 days exposure
From the text: Untreated and treated cells were harvested for analysis of select mRNAs using RT-PCR as described in materials and methods. […] (C). Model proposing interplay between PPARγ and SIRT1 in controlling adipocyte function, PPARγ functions to regulate adipocyte formation and function. Endogenous ligands activate PPARγ requiring participation of both helix 7 and 12 to orchestrate adipogenesis. In mature adipocytes, SIRT1 mediates hormonal and nutrient control of select PPARγ target genes that are involved in controlling metabolism by suppressing the action of endogenous ligands. The thiazolidinedione (TZD) family of synthetic PPARγ ligands can overcome the suppressive effects of SIRT1 acting through helix 7 as well as helix 12 to induce the metabolic genes.
as §2

[8] = test system: mouse FGF21 promotor constructs; assay: FGF21 promoter luciferase reporter gene assay in Swiss fibroblasts; format: cell-based; settings: 1 μM GW1929, 48 hours
Protocol: as §1

[9] = control and SIRT1 knock down 3T3-L1 cells, T0070907 10 μM (FIG. 6D)
[10] = troglitazone 5 μM or T0070907 10 μM, 3 days
[11] = resveratrol 50 μM or nicotinamide 5 mM, 2 days
[12] = resveratrol 50 μM or nicotinamide 5 mM, 2 days, reducing SDS-PAGE

Compound: OCCS [β-mercaptoethanol]
secretion of adiponectin (3T3-L1 adipocytes [1]; β-mercaptoethanol treatment, preliminary data, not shown): significantly enhances the secretion of adiponectin

Compound: O=C(Nc1ccncc1)c1cc([N+](=O)[O-])ccc1Cl [Compound T0070907]
expression of C/EBPα and adiponectin in response to endogenous ligands (FIG. 14B) (Swiss WT-PPARγ cells): moderately attenuate
expression of the Group 2 genes in response to endogenous ligands (FIG. 14B) (Swiss WT-PPARγ cells): almost completely block expression of the Group 2 genes; also recorded: the most potent
Ero1-Lα mRNA expression [2]: attenuates Ero1-Lα expression
Ero1-Lα expression (3T3-L1 adipocytes [1]; [9]): inhibits Ero1-Lα expression
adiponectin secretion (3T3-L1 adipocytes [1]; [9]): suppresses adiponectin secretion
amount of secreted HMW adiponectin (3T3-L1 adipocytes [1]; [10]): has the opposite effect
secretion of adipsin (3T3-L1 adipocytes [1]; [10]): has the opposite effect

IC50 (SIRT1 [3]): < 1 µM
Compound: Cc1ccc2[nH]c3c(c2c1)CCCC3C(N)=O (stereo not drawn) [Compound 4, 6-Methyl-2,3,4,9-tetrahydro-1H-carbazole-1-carboxylic acid amide]

Compound: Oc1ccc(C=Cc2cc(O)cc(O)c2)cc1 [resveratrol]
secretion of adipsin (3T3-L1 adipocytes [1]; [11]): without affecting secretion of adipsin
secretion of the HMW adiponectin complexes (3T3-L1 adipocytes [1]; [11]): decreases
secretion of adiponectin (Ext) (3T3-L1 adipocytes [1]; [12]): reduces the secretion of adiponectin
secretion of adiponectin [4]: inhibits secretion of adiponectin

Compound: NC(=O)c1cccnc1 [nicotinamide]
secretion of adipsin (3T3-L1 adipocytes [1]; [11]): has no effect on adipsin
secretion of the HMW adiponectin complexes (3T3-L1 adipocytes [1]; [11]): enhances
secretion of adiponectin (Ext) (3T3-L1 adipocytes [1]; [12]): enhancing secretion of adiponectin

Compound: NC(=O)C1CCCCc2c1[nH]c1ccc(Cl)cc21 (racemic) [Compound E2]
FGF21 expression induced by troglitazone (FIG. 20) [5]: potentiate the activity of troglitazone in inducing FGF21 expression

Compound: C[C@@H]1C[C@@H]([C@H](O)CC2CC(=O)NC(=O)C2)C(=O)[C@@H](C)C1 [cycloheximide]
FGF21 mRNA expression (FIG. 15A) (Swiss WT-PPARγ cells; day 5 cells, troglitazone 5 μM or cycloheximide 5 μg/ml for 4, 6 or 8 hrs): induced simply due to exposure to cycloheximide

Compound: O=C[C@H](O)[C@@H](O)[C@H](O)[C@H](O)CO [glucose]
secretion of HMW forms of adiponectin (3T3-L1 adipocytes [1]; glucose or 20 mM lactate, non-reducing SDS-PAGE without heat): significant increase in the appearance of the HMW species in the media
SIRT1 expression (3T3-L1 adipocytes [1]; increase in glucose concentration, 72 hrs): significant decrease of SIRT1 expression
amount of adiponectin secreted into the medium (Ext) (3T3-L1 adipocytes [1]; increasing concentrations of glucose, 72 hrs, reducing SDS-PAGE): dramatically increases the amount of adiponectin secreted into the medium

Compound: O=C(Nc1ccccc1)c1cc([N+](=O)[O-])ccc1Cl [GW9662]
expression of C/EBPα and adiponectin in response to endogenous ligands (FIG. 14B) (Swiss WT-PPARγ cells): moderately attenuate
expression of the Group 2 genes in response to endogenous ligands (FIG. 14B) (Swiss WT-PPARγ cells): almost completely block expression of the Group 2 genes

Compound: GGGCUCUCUCCAAAGUGCUUCCAUU [siRNA #3]
attenuation of Ero1-Lα expression (Ero1-Lα): the most effective

activity against the SIRT1 enzyme (SIRT1 [6]): inactive isomer
Compound: NC(=O)C1CCCc2c1[nH]c1ccc(Cl)cc21 (stereo not drawn) [Compound E1]

Compound: Cc1c(C)c2c(c(C)c1O)CCC(C)(COc1ccc(CC3SC(=O)NC3=O)cc1)O2 (stereo not drawn) [troglitazone]
doses of troglitazone inducing C/EBPα, adiponectin and FABP4/aP2 (FIG. 14C) (Swiss EF-PPARγ cells; EF-PPARγ cells, 5 days): 250 to 500 nM
dose of troglitazone inducing FGF21 and Egln1 (FIG. 17B) (3T3-L1 adipocytes [7]): 250 nM

activity against the SIRT1 enzyme (SIRT1 [6]): active isomer
Compound: NC(=O)C1CCCc2c1[nH]c1ccc(Cl)cc21 (stereo not drawn) [Compound E3]
FGF21 expression induced by troglitazone (FIG. 20) [5]: potentiate the activity of troglitazone in inducing FGF21 expression

transcriptional activity of the 500 bp fragment of the FGF21 gene ([8]; Swiss cells stably expressing WT-PPARγ): enhanced many fold
luciferase activity of FGF21 gene fragments (FIG. 15B) ([8]; Swiss fibroblasts co-transfected with PPARγ expression plasmid): enhanced even further
luciferase activity of FGF21 gene fragments (FIG. 15B) ([8]; control Swiss fibroblasts without PPARγ plasmid): has no affect on this activity
Compound: CN(CCOc1ccc(C[C@H](Nc2ccccc2C(=O)c2ccccc2)C(=O)O)cc1)c1ccccn1 [GW1929]
expression of select Group 1 genes (FIG. 14A) (Swiss EF-PPARγ cells): capable of inducing expression of the Group 2 genes as well as Group 1 genes
